Literature values, collected in patent US20110165150A1, “Isolated organ perfusion combination therapy of cancer” (Merck Patent GmbH, priority 2006, published 2011).

Test system: integrin receptors αvβ3, αvβ1, αvβ6, αvβ8, αIIbβ3
Settings: especially αvβ3 and/or αvβ5

Which “blocking the integrin receptors” value does the source give for `CC(C)[C@H]1C(=O)N[C@@H](CCCN=C(N)N)C(=O)NCC(=O)N[C@@H](CC(=O)O)C(=O)N[C@H](Cc2ccccc2)C(=O)N1C` [Cilengitide, cyclo-(Arg-Gly-Asp-DPhe-NMeVal)] here?
Its value is “efficacious in blocking”.
